# From EP4603105A1, “PHARMACEUTICAL COMPOSITION CONTAINING CYCLIC COMPOUND HAVING SELECTIVE KRAS INHIBITORY EFFECT AGAINST HRAS AND NRAS” (CHUGAI SEIYAKU KABUSHIKI KAISHA, priority 2022, dated 2024)
# Experiments:
# [1] = molecular target: GDP-bound KRAS wild-type protein (Homo sapiens, UniProt P01116); experiment: Binding to KRAS by surface plasmon resonance (SPR), dissociation constant KD; details: Single Cycle Kinetics
# How it was run: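 Each cycle, GDP-bound biotin-Avi RAS was captured (~100–300 RU), compound concentrations were injected low to high for 75 s each at 100 µL/min, then the chip was regenerated. Buffer: HBS pH 7.4, 10 mM MgCl2, 10 µM GDP, 1 mM DTT, 4% DMSO; 30°C. KD from a 1:1 binding model.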
# HRAS wild-type protein = HRAS wild-type protein (Homo sapiens, UniProt P01112); experiment: Binding to HRAS by surface plasmon resonance (SPR), KD and KD ratio to KRAS; details: ratio of KD for HRAS wild-type protein to KD for KRAS
# Sequence of HRAS wild-type protein (P01112 whole entry): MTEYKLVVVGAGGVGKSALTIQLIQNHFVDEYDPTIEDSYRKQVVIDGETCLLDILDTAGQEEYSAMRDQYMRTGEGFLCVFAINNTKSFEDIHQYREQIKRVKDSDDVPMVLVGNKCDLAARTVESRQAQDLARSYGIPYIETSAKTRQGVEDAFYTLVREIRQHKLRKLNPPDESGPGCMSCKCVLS
# How it was run: (§1)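 Running buffer contained 10 µM GDP and 10 mM MgCl2 to keep RAS in the GDP state, with 4% DMSO at pH 7.4. Compounds were flowed at 100 µL/min in 75 s steps of rising concentration over captured biotin-Avi RAS at 30°C. Sensorgrams were fitted 1:1 for KD.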
# [2] = molecular target: GDP-bound NRAS wild-type protein (Homo sapiens, UniProt P01111); experiment: Binding to NRAS by surface plasmon resonance (SPR), KD and KD ratio to KRAS; details: ratio of KD for GDP-bound NRAS wild-type protein to KD for KRAS
# Sequence of GDP-bound NRAS wild-type protein (P01111 whole entry): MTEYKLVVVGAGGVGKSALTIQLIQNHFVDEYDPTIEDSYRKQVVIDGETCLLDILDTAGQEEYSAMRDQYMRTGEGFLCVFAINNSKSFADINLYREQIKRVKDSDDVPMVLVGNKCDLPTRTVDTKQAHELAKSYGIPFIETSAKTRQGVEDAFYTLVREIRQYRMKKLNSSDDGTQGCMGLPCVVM
# How it was run: as §1
# [3] = system: human lung cancer strain NCI-H441; experiment: NCI-H441 cell proliferation inhibitory activity (CellTiter-Glo, 4 days); assay type: cell-based; details: NCI-H441 cells, 4 days, read-out: NCl-H441 IC50
# How it was run: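 Step one: dispense the test compound in serial DMSO dilutions. Step three: add the reagent and measure […].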
# Sequence of GDP-bound KRAS wild-type protein (P01116 1-188 isoform P01116-2): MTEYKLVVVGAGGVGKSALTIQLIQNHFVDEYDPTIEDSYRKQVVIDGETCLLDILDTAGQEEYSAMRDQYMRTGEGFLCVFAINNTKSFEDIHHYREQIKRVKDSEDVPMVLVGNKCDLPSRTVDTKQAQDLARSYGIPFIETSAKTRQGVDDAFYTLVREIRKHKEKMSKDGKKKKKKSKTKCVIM
SMILES,Kd [1] [nM],HRAS /KRAS (HRAS wild-type protein),NRAS /KRAS [2],IC50 [3] [nM]
CCC[C@H]1C(=O)N[C@@H]([C@@H](C)CC)C(=O)N(C2CC2)CC(=O)N(C)[C@H]2C/C=C\CCN(C2=O)[C@@H](Cc2ccc(C)cc2)C(=O)N(C)CC(=O)N[C@@H](CCc2ccc(C(F)(F)F)c(Cl)c2)C(=O)N2CC[C@H](OC)[C@H]2C(=O)N(C)C2(CCC2)C(=O)N(C)[C@@H](C2CCCC2)C(=O)N(C)[C@H](C(=O)N(C)C)CC(=O)N1C [PP3233],0.25,A (a compound having 10 or more and less than 20 is denoted as A),A (a compound having 10 or more and less than 20 is denoted as A),9.3
CCC[C@H]1C(=O)N[C@@H]([C@@H](C)CC)C(=O)N2CCC[C@H]2C(=O)N(C)[C@H]2C/C=C\CCN(C2=O)[C@@H](Cc2ccc(C)cc2)C(=O)N(C)CC(=O)N[C@@H](CCc2ccc(C(F)(F)F)c(Cl)c2)C(=O)N2CC[C@H](OC)[C@H]2C(=O)N(C)C2(CCC2)C(=O)N(C)[C@@H](C2CCCC2)C(=O)N(C)[C@H](C(=O)N(C)C)CC(=O)N1C [PP3235],0.21,A (a compound having 10 or more and less than 20 is denoted as A),A (a compound having 10 or more and less than 20 is denoted as A),7
C#CC[C@H]1C(=O)N[C@@H]([C@@H](C)CC)C(=O)N(C)CC(=O)N(C)[C@H]2C/C=C\CCN(C2=O)[C@@H](Cc2ccc(C)cc2)C(=O)N(C)CC(=O)N[C@@H](CCc2ccc(C(F)(F)F)c(OC)c2)C(=O)N2C[C@H](OCC)C[C@H]2C(=O)N(C)C2(CCC2)C(=O)N(C)[C@@H](C2CCCC2)C(=O)N(C)[C@H](C(=O)N(C)C)CC(=O)N1C [PP3236],0.028,B (a compound having 3 or more and less than 10 is denoted as B),A (a compound having 10 or more and less than 20 is denoted as A),3.9
CCC[C@H]1C(=O)N[C@@H]([C@@H](C)CC)C(=O)N(C)CC(=O)N(C)[C@H]2C/C=C\CCN(C2=O)[C@@H](Cc2ccc(C)cc2)C(=O)N(C)CC(=O)N[C@@H](CCc2ccc(C(F)(F)F)c(Cl)c2)C(=O)N2CC[C@H](OC)[C@H]2C(=O)N(C)C2(CCC2)C(=O)N(C)[C@@H](C2CCCC2)C(=O)N(C)[C@H](C(=O)N(C)C)CC(=O)N1C [PP3237],0.057,B (a compound having 3 or more and less than 10 is denoted as B),A (a compound having 10 or more and less than 20 is denoted as A),6.1
CCC[C@H]1C(=O)N[C@@H]([C@@H](C)CC)C(=O)N(C2CC2)CC(=O)N(C)[C@H]2C/C=C\CCN(C2=O)[C@@H](Cc2ccc(C(F)(F)F)cc2)C(=O)N(C)CC(=O)N[C@@H](CCc2ccc(C(F)(F)F)c(OC)c2)C(=O)N2CC[C@H](OC)[C@H]2C(=O)N(C)C2(CCC2)C(=O)N(C)[C@@H](C2CCCC2)C(=O)N(C)[C@H](C(=O)N(C)C)CC(=O)N1C [PP3239],0.23,A (a compound having 10 or more and less than 20 is denoted as A),A (a compound having 10 or more and less than 20 is denoted as A),6.5
C#CC[C@H]1C(=O)N[C@@H]([C@@H](C)CC)C(=O)N(C)CC(=O)N(C)[C@H]2C/C=C\CCN(C2=O)[C@@H](Cc2ccc(C)cc2)C(=O)N(C)CC(=O)N[C@@H](CCc2ccc(C(F)(F)F)c(Cl)c2)C(=O)N2C[C@H](OCC)C[C@H]2C(=O)N(C)C2(CCC2)C(=O)N(C)[C@@H](C2CCCC2)C(=O)N(C)[C@H](C(=O)N(C)C)CC(=O)N1C [PP3240],0.024,A (a compound having 10 or more and less than 20 is denoted as A),A (a compound having 10 or more and less than 20 is denoted as A),2.3
CCC[C@H]1C(=O)N[C@@H]([C@@H](C)CC)C(=O)N2CCC[C@H]2C(=O)N(C)[C@H]2C/C=C\CCN(C2=O)[C@@H](Cc2ccc(C(F)(F)F)cc2)C(=O)N(C)CC(=O)N[C@@H](CCc2ccc(C(F)(F)F)c(OC)c2)C(=O)N2CC[C@H](OC)[C@H]2C(=O)N(C)C2(CCC2)C(=O)N(C)[C@@H](C2CCCC2)C(=O)N(C)[C@H](C(=O)N(C)C)CC(=O)N1C [PP3241],0.31,B (a compound having 3 or more and less than 10 is denoted as B),A (a compound having 10 or more and less than 20 is denoted as A),10.5
C#CC[C@H]1C(=O)N[C@@H]([C@@H](C)CC)C(=O)N(C2CC2)CC(=O)N(C)[C@H]2C/C=C\CCN(C2=O)[C@@H](Cc2ccc(C(F)(F)F)cc2)C(=O)N(C)CC(=O)N[C@@H](CCc2ccc(C(F)(F)F)c(OC)c2)C(=O)N2C[C@H](OCC)C[C@H]2C(=O)N(C)C2(CCC2)C(=O)N(C)[C@@H](C2CCCC2)C(=O)N(C)[C@H](C(=O)N(C)C)CC(=O)N1C [PP3242],0.097,A (a compound having 10 or more and less than 20 is denoted as A),A (a compound having 10 or more and less than 20 is denoted as A),6
CCC[C@H]1C(=O)N[C@@H]([C@@H](C)CC)C(=O)N(C)CC(=O)N(C)[C@H]2C/C=C\CCN(C2=O)[C@@H](Cc2ccc(C(F)(F)F)cc2)C(=O)N(C)CC(=O)N[C@@H](CCc2ccc(C(F)(F)F)c(OC)c2)C(=O)N2CC[C@H](OC)[C@H]2C(=O)N(C)C2(CCC2)C(=O)N(C)[C@@H](C2CCCC2)C(=O)N(C)[C@H](C(=O)N(C)C)CC(=O)N1C [PP3243],0.066,A (a compound having 10 or more and less than 20 is denoted as A),A (a compound having 10 or more and less than 20 is denoted as A),5.3
C#CC[C@H]1C(=O)N[C@@H]([C@@H](C)CC)C(=O)N(C2CC2)CC(=O)N(C)[C@H]2C/C=C\CCN(C2=O)[C@@H](Cc2ccc(C(F)(F)F)cc2)C(=O)N(C)CC(=O)N[C@@H](CCc2cc(F)c(C(F)(F)F)c(F)c2)C(=O)N2C[C@H](OCC)C[C@H]2C(=O)N(C)C2(CCC2)C(=O)N(C)[C@@H](C2CCCC2)C(=O)N(C)[C@H](C(=O)N(C)C)CC(=O)N1C [PP3244],0.1,A (a compound having 10 or more and less than 20 is denoted as A),A (a compound having 10 or more and less than 20 is denoted as A),1.9
CCC[C@H]1C(=O)N[C@@H]([C@@H](C)CC)C(=O)N(C2CC2)CC(=O)N(C)[C@H]2C/C=C\CCN(C2=O)[C@@H](Cc2ccc(C)cc2)C(=O)N(C)CC(=O)N[C@@H](CCc2ccc(C(F)(F)F)c(OC)c2)C(=O)N2CC[C@H](OC)[C@H]2C(=O)N(C)C2(CCC2)C(=O)N(C)[C@@H](C2CCCC2)C(=O)N(C)[C@H](C(=O)N(C)C)CC(=O)N1C [PP3245],0.18,A (a compound having 10 or more and less than 20 is denoted as A),A (a compound having 10 or more and less than 20 is denoted as A),6.7
C#CC[C@H]1C(=O)N[C@@H]([C@@H](C)CC)C(=O)N(C2CC2)CC(=O)N(C)[C@H]2C/C=C\CCN(C2=O)[C@@H](Cc2ccc(C(F)(F)F)cc2)C(=O)N(C)CC(=O)N[C@@H](CCc2ccc(C(F)(F)F)c(Cl)c2)C(=O)N2C[C@H](OCC)C[C@H]2C(=O)N(C)C2(CCC2)C(=O)N(C)[C@@H](C2CCCC2)C(=O)N(C)[C@H](C(=O)N(C)C)CC(=O)N1C [PP3246],0.086,A (a compound having 10 or more and less than 20 is denoted as A),A (a compound having 10 or more and less than 20 is denoted as A),3.8
CCC[C@H]1C(=O)N[C@@H]([C@@H](C)CC)C(=O)N2CCC[C@H]2C(=O)N(C)[C@H]2C/C=C\CCN(C2=O)[C@@H](Cc2ccc(C)cc2)C(=O)N(C)CC(=O)N[C@@H](CCc2ccc(C(F)(F)F)c(OC)c2)C(=O)N2CC[C@H](OC)[C@H]2C(=O)N(C)C2(CCC2)C(=O)N(C)[C@@H](C2CCCC2)C(=O)N(C)[C@H](C(=O)N(C)C)CC(=O)N1C [PP3247],0.22,B (a compound having 3 or more and less than 10 is denoted as B),A (a compound having 10 or more and less than 20 is denoted as A),5.3
C#CC[C@H]1C(=O)N[C@@H]([C@@H](C)CC)C(=O)N(C2CC2)CC(=O)N(C)[C@H]2C/C=C\CCN(C2=O)[C@@H](Cc2ccc(C)cc2)C(=O)N(C)CC(=O)N[C@@H](CCc2ccc(C(F)(F)F)c(OC)c2)C(=O)N2C[C@H](OCC)C[C@H]2C(=O)N(C)C2(CCC2)C(=O)N(C)[C@@H](C2CCCC2)C(=O)N(C)[C@H](C(=O)N(C)C)CC(=O)N1C [PP3248],0.078,A (a compound having 10 or more and less than 20 is denoted as A),A (a compound having 10 or more and less than 20 is denoted as A),4.5
